Results published in PubChem BioAssay AID248 (DTP/NCI, 2004).
Values joined by “and” are separate entries in the source; they are usually repeats but may differ in a detail not shown here. Equal values may be shown once. Toxic doses and inconclusive results are not listed.

Test system: L1210 leukemia ip in BDF1 mice, survival T/C
Experiment: NCI In Vivo Anticancer Drug Screen. Data for tumor model L1210 Leukemia (intraperitoneal) in B6D2F1 (BDF1) mice
Settings: higher = longer survival
Method in brief: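 Antitumor effect is assessed in tumor-bearing animals. Survival in the compound arm is compared with a vehicle-dosed control arm and expressed as their quotient.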

## CC[n+]1ccc(Nc2ccc(NC(=O)c3ccc(Nc4cc[n+](CC)c5ccc(N)cc45)cc3)cc2)cc1
endpoint: mean survival time, dose: 0.12 mg/kg/injection, schedule: Q01DX005 (iv), vehicle: water
  T/C: 101 % of control
endpoint: mean survival time, dose: 0.12 mg/kg/injection, schedule: Q04DX003 (iv), vehicle: water
  T/C: 105 % of control
endpoint: mean survival time, dose: 0.25 mg/kg/injection, schedule: Q01DX005 (iv), vehicle: water
  T/C: 105 % of control
endpoint: mean survival time, dose: 0.25 mg/kg/injection, schedule: Q03HX024 (ip), vehicle: water
  T/C: 113 % of control
endpoint: mean survival time, dose: 0.25 mg/kg/injection, schedule: Q04DX003 (iv), vehicle: water
  T/C: 102 % of control
endpoint: mean survival time, dose: 0.5 mg/kg/injection, schedule: Q01DX005 (iv), vehicle: water
  T/C: 100 % of control and 103 % of control
endpoint: mean survival time, dose: 0.5 mg/kg/injection, schedule: Q01DX009 (sc), vehicle: water
  T/C: 94 % of control
endpoint: mean survival time, dose: 0.5 mg/kg/injection, schedule: Q03HX024 (ip), vehicle: water
  T/C: 157 % of control
endpoint: mean survival time, dose: 0.5 mg/kg/injection, schedule: Q03HX024 (oral), vehicle: water
  T/C: 97 % of control
endpoint: mean survival time, dose: 0.5 mg/kg/injection, schedule: Q04DX003 (iv), vehicle: water
  T/C: 101 % of control
endpoint: mean survival time, dose: 0.75 mg/kg/injection, schedule: Q01DX009 (ip), vehicle: saline
  T/C: 152 % of control and 201 % of control
endpoint: mean survival time, dose: 1.0 mg/kg/injection, schedule: Q01DX005 (iv), vehicle: water
  T/C: 115 % of control
endpoint: mean survival time, dose: 1.0 mg/kg/injection, schedule: Q01DX009 (ip), vehicle: water
  T/C: 180 % of control and 211 % of control
endpoint: mean survival time, dose: 1.0 mg/kg/injection, schedule: Q01DX009 (oral), vehicle: water
  T/C: 103 % of control
endpoint: mean survival time, dose: 1.0 mg/kg/injection, schedule: Q01DX009 (sc), vehicle: water
  T/C: 112 % of control and 122 % of control
endpoint: mean survival time, dose: 1.0 mg/kg/injection, schedule: Q03HX016 (ip), vehicle: water
  T/C: 156 % of control
endpoint: mean survival time, dose: 1.0 mg/kg/injection, schedule: Q03HX024 (ip), vehicle: water
  T/C: 186 % of control and 187 % of control and 208 % of control
endpoint: mean survival time, dose: 1.0 mg/kg/injection, schedule: Q03HX024 (oral), vehicle: water
  T/C: 96 % of control and 101 % of control
endpoint: mean survival time, dose: 1.0 mg/kg/injection, schedule: Q03HX024 (sc), vehicle: water
  T/C: 164 % of control
endpoint: mean survival time, dose: 1.0 mg/kg/injection, schedule: Q04DX003 (iv), vehicle: water
  T/C: 103 % of control
endpoint: mean survival time, dose: 1.5 mg/kg/injection, schedule: Q01DX009 (ip), vehicle: saline
  T/C: 160 % of control and 171 % of control
endpoint: mean survival time, dose: 1.9 mg/kg/injection, schedule: Q01DX009 (ip), vehicle: saline
  T/C: 281 % of control
endpoint: mean survival time, dose: 2.0 mg/kg/injection, schedule: Q01DX005 (iv), vehicle: water
  T/C: 103 % of control
endpoint: mean survival time, dose: 2.0 mg/kg/injection, schedule: Q01DX009 (oral), vehicle: water
  T/C: 103 % of control
endpoint: mean survival time, dose: 2.0 mg/kg/injection, schedule: Q01DX009 (sc), vehicle: water
  T/C: 189 % of control and 206 % of control
endpoint: mean survival time, dose: 2.0 mg/kg/injection, schedule: Q03HX016 (ip), vehicle: water
  T/C: 188 % of control
endpoint: mean survival time, dose: 2.0 mg/kg/injection, schedule: Q03HX024 (ip), vehicle: water
  T/C: 123 % of control and 218 % of control
endpoint: mean survival time, dose: 2.0 mg/kg/injection, schedule: Q03HX024 (oral), vehicle: water
  T/C: 97 % of control and 100 % of control
endpoint: mean survival time, dose: 2.0 mg/kg/injection, schedule: Q03HX024 (sc), vehicle: water
  T/C: 211 % of control
endpoint: mean survival time, dose: 2.0 mg/kg/injection, schedule: Q04DX003 (ip), vehicle: water
  T/C: 113 % of control and 120 % of control
endpoint: mean survival time, dose: 2.0 mg/kg/injection, schedule: Q04DX003 (iv), vehicle: water
  T/C: 105 % of control
endpoint: mean survival time, dose: 3.0 mg/kg/injection, schedule: Q01DX009 (ip), vehicle: saline
  T/C: 274 % of control
endpoint: mean survival time, dose: 3.2 mg/kg/injection, schedule: Q01DX009 (ip), vehicle: saline
  T/C: 313 % of control
endpoint: mean survival time, dose: 4.0 mg/kg/injection, schedule: Q01DX001 (ip), vehicle: water
  T/C: 111 % of control
endpoint: mean survival time, dose: 4.0 mg/kg/injection, schedule: Q01DX009 (oral), vehicle: water
  T/C: 96 % of control
endpoint: mean survival time, dose: 4.0 mg/kg/injection, schedule: Q01DX009 (sc), vehicle: water
  T/C: 116 % of control and 219 % of control
endpoint: mean survival time, dose: 4.0 mg/kg/injection, schedule: Q03HX016 (ip), vehicle: water
  T/C: 271 % of control
endpoint: mean survival time, dose: 4.0 mg/kg/injection, schedule: Q03HX024 (ip), vehicle: water
  T/C: 112 % of control
endpoint: mean survival time, dose: 4.0 mg/kg/injection, schedule: Q03HX024 (oral), vehicle: water
  T/C: 100 % of control and 101 % of control
endpoint: mean survival time, dose: 4.0 mg/kg/injection, schedule: Q08DX002 (ip), vehicle: water
  T/C: 107 % of control
endpoint: mean survival time, dose: 4.0 mg/kg/injection, schedule: Q08DX002 (oral), vehicle: water
  T/C: 101 % of control
endpoint: mean survival time, dose: 5.0 mg/kg/injection, schedule: Q01DX009 (oral), vehicle: water
  T/C: 103 % of control
endpoint: mean survival time, dose: 6.0 mg/kg/injection, schedule: Q01DX009 (ip), vehicle: saline
  T/C: 271 % of control
endpoint: mean survival time, dose: 8.0 mg/kg/injection, schedule: Q01DX009 (ip), vehicle: water
  T/C: 96 % of control
endpoint: mean survival time, dose: 8.0 mg/kg/injection, schedule: Q01DX009 (oral), vehicle: water
  T/C: 104 % of control (2×) and 107 % of control
endpoint: mean survival time, dose: 8.0 mg/kg/injection, schedule: Q01DX009 (sc), vehicle: water
  T/C: 101 % of control and 117 % of control
endpoint: mean survival time, dose: 8.0 mg/kg/injection, schedule: Q03HX024 (oral), vehicle: water
  T/C: 106 % of control
endpoint: mean survival time, dose: 8.0 mg/kg/injection, schedule: Q03HX024 (sc), vehicle: water
  T/C: 104 % of control
endpoint: mean survival time, dose: 8.0 mg/kg/injection, schedule: Q04DX003 (ip), vehicle: water
  T/C: 160 % of control and 164 % of control and 175 % of control
endpoint: mean survival time, dose: 9.0 mg/kg/injection, schedule: Q01DX009 (ip), vehicle: saline
  T/C: 109 % of control
endpoint: mean survival time, dose: 10.0 mg/kg/injection, schedule: Q01DX009 (oral), vehicle: water
  T/C: 103 % of control
endpoint: mean survival time, dose: 16.0 mg/kg/injection, schedule: Q01DX009 (ip), vehicle: water
  T/C: 94 % of control
endpoint: mean survival time, dose: 16.0 mg/kg/injection, schedule: Q01DX009 (oral), vehicle: water
  T/C: 101 % of control
endpoint: mean survival time, dose: 16.0 mg/kg/injection, schedule: Q04DX003 (ip), vehicle: water
  T/C: 177 % of control and 190 % of control and 245 % of control
endpoint: mean survival time, dose: 18.0 mg/kg/injection, schedule: Q01DX001 (ip), vehicle: saline
  T/C: 157 % of control
endpoint: mean survival time, dose: 20.0 mg/kg/injection, schedule: Q01DX009 (oral), vehicle: water
  T/C: 100 % of control
endpoint: mean survival time, dose: 25.0 mg/kg/injection, schedule: Q01DX001 (ip), vehicle: saline
  T/C: 120 % of control
endpoint: mean survival time, dose: 32.0 mg/kg/injection, schedule: Q01DX009 (oral), vehicle: water
  T/C: 103 % of control and 111 % of control
endpoint: mean survival time, dose: 32.0 mg/kg/injection, schedule: Q03HX008 (ip), vehicle: water
  T/C: 190 % of control
endpoint: mean survival time, dose: 40.0 mg/kg/injection, schedule: Q01DX009 (oral), vehicle: water
  T/C: 105 % of control
endpoint: mean survival time, dose: 64.0 mg/kg/injection, schedule: Q01DX009 (oral), vehicle: water
  T/C: 100 % of control and 102 % of control
endpoint: mean survival time, dose: 80.0 mg/kg/injection, schedule: Q01DX009 (oral), vehicle: water
  T/C: 110 % of control
endpoint: median survival time, dose: 0.5 mg/kg/injection, schedule: Q03HX024 (ip), vehicle: water
  T/C: 120 % of control and 122 % of control
endpoint: median survival time, dose: 1.3 mg/kg/injection, schedule: Q03HX024 (ip), vehicle: water
  T/C: 190 % of control and 191 % of control
endpoint: median survival time, dose: 2.2 mg/kg/injection, schedule: Q01DX009 (ip), vehicle: water
  T/C: 195 % of control and 198 % of control
endpoint: median survival time, dose: 2.2 mg/kg/injection, schedule: Q03HX024 (ip), vehicle: water
  T/C: 235 % of control and 247 % of control
endpoint: median survival time, dose: 3.6 mg/kg/injection, schedule: Q01DX009 (ip), vehicle: water
  T/C: 225 % of control and 227 % of control
endpoint: median survival time, dose: 6.0 mg/kg/injection, schedule: Q01DX009 (ip), vehicle: water
  T/C: 170 % of control and 172 % of control
endpoint: median survival time, dose: 10.0 mg/kg/injection, schedule: Q01DX009 (ip), vehicle: water
  T/C: 120 % of control and 122 % of control

## N#Cc1ccc(OCCCCCOc2ccc([N+](=O)[O-])cc2)cc1
endpoint: mean survival time, dose: 75.0 mg/kg/injection, schedule: Q01DX009 (ip), vehicle: Klucel (hydroxypropylcellulose) (HPC)
  T/C: 101 % of control
endpoint: mean survival time, dose: 150.0 mg/kg/injection, schedule: Q01DX009 (ip), vehicle: Klucel (hydroxypropylcellulose) (HPC)
  T/C: 97 % of control
endpoint: mean survival time, dose: 300.0 mg/kg/injection, schedule: Q01DX009 (ip), vehicle: Klucel (hydroxypropylcellulose) (HPC)
  T/C: 100 % of control
